The values that follow come from patent publication US20240277717A1, “APPLICATION OF GANCICLOVIR IN PREPAPRATION OF MEDICINE FOR TREATING ALLERGIC RHINITIS” (Union Hospital, Tongji Medical College, Huazhong University …, priority 2023, published 2024).

The assay deals with AR patients. Nature of the assay: Specific cases: earlier treatment reported in the patient history. It counts as in vivo, human.

With Omalizumab, the “nasal symptoms after earlier treatment (patient history)” value was “did not ameliorate” (Case 4, injected, before GCV) and “without any improvement” (Case 5, before GCV).
